Where two headings read alike, the source gives them in different places.
Key:
hJAK2 = hJAK2 (Homo sapiens (Human), UniProt O60674); assay: hJAK2 LANCE TR-FRET enzymatic assay; type: biochemical; conditions: read-out: JAK2 IC50
TBK1 = TBK1 (Homo sapiens (Human), UniProt Q9UHD2); assay: TBK1 TR-FRET enzymatic assay;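 further: phosphorylation of a biotinylated Ser/Thr peptide by purified full-length recombinant TBK1, read by TR-FRET after 240 min at 25 °C, IC50 is the geometric mean of at least four runs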
IKKε = IKKε (Homo sapiens (Human), UniProt Q14164); assay: IKKε TR-FRET enzymatic assay; type: biochemical; conditions: read-out: IKKe IC50
[1] = TR-FRET, 2×Km ATP, geometric mean of minimum four determinations

Chain of hJAK2 (O60674 whole entry): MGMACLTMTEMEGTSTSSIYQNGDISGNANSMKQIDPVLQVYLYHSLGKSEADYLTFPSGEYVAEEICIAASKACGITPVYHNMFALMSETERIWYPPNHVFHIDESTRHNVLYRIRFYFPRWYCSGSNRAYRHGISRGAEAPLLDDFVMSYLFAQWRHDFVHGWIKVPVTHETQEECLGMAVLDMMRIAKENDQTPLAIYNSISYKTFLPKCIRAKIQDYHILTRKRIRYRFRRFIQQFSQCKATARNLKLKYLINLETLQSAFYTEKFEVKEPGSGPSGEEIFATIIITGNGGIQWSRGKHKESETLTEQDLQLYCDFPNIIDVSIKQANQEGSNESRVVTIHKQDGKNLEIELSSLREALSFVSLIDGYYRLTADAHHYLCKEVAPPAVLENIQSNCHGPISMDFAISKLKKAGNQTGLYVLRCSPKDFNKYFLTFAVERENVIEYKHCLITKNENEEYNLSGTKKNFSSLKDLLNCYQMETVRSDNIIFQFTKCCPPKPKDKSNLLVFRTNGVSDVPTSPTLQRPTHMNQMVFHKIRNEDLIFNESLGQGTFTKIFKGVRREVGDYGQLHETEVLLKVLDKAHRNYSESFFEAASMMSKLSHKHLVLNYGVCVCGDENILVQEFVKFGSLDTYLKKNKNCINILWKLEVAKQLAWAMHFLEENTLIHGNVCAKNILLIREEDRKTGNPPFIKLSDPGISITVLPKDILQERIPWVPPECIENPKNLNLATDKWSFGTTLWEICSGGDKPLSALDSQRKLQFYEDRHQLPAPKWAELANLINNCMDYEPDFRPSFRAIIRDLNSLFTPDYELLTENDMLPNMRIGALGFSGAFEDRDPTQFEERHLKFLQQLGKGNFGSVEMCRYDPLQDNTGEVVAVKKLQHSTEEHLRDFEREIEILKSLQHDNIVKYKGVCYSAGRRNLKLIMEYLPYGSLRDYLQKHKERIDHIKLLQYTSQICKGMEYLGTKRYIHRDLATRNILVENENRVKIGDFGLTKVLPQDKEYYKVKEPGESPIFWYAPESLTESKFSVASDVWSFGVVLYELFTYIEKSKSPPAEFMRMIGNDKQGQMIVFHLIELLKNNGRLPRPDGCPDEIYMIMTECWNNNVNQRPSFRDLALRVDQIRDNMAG
Chain of IKKε (Q14164 whole entry): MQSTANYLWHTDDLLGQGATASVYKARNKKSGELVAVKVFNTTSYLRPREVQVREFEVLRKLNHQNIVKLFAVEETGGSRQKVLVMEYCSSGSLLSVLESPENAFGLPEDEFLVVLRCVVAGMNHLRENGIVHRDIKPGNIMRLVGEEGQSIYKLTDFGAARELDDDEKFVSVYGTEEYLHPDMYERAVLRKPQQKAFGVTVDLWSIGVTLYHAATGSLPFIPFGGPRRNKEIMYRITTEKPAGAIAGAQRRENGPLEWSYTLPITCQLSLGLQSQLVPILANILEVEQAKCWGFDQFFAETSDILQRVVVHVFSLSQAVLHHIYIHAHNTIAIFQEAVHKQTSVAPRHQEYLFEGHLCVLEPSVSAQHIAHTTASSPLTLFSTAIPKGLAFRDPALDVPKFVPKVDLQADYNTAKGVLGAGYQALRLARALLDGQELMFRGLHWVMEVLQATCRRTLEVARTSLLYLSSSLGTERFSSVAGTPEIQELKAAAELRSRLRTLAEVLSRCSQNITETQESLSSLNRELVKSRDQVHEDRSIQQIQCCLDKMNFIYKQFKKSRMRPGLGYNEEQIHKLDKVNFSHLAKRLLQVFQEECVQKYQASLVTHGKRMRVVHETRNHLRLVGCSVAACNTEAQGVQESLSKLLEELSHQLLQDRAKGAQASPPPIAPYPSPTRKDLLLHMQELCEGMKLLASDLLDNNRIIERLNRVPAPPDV
Chain of TBK1 (Q9UHD2 whole entry): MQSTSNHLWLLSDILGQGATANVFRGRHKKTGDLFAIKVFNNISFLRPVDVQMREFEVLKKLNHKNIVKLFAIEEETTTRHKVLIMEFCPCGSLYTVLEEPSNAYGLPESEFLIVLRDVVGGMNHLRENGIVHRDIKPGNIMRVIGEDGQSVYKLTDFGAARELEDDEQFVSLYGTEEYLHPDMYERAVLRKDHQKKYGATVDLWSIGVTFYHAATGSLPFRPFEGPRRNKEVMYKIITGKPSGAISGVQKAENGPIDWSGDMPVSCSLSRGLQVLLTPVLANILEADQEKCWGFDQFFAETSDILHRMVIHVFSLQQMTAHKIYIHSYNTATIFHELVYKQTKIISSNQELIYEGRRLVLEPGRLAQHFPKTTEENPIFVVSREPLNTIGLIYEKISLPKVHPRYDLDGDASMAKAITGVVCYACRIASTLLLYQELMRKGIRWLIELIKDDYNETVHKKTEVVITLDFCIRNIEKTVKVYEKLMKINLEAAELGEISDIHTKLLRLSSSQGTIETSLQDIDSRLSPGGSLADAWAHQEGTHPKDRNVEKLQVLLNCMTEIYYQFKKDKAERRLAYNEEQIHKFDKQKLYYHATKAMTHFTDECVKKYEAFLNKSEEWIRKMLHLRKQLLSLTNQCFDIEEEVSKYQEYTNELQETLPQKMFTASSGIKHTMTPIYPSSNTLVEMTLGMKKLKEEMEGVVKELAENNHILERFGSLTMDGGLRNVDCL

IC50 (hJAK2)	IC50 (TBK1)	IC50 (IKKε)	IC50 (IKKε; [1])	SMILES	IC50 (TBK1; TBK1 IC50)
0.944 µM	0.007 µM	0.01 µM	–	C[C@H](O)C(=O)N1CC[C@H](Oc2ccc(-c3ncnc(Nc4cnn(C5COC5)c4)n3)cc2C#N)[C@H](F)C1 [Example 353, 2-(((3R,4S)-3-fluoro-1-((S)-2-hydroxypropanoyl)piperidin-4-yl)oxy)-5-(4-((1-(oxetan-3-yl)-1H-pyrazol-4-yl)amino)-1,3,5-triazin-2-yl)benzonitrile]	–
0.032 µM	0.004 µM	–	0.007 µM	Cc1cc(Nc2ncnc(-c3ccc(N4C[C@H](O)C[C@@H]4C)c(C#N)c3)n2)ccc1N1CCN(C2COC2)CC1 [Example 534, 2-((2S,4R)-4-hydroxy-2-methylpyrrolidin-1-yl)-5-(4-((3-methyl-4-(4-(oxetan-3-yl)piperazin-1-yl)phenyl)amino)-1,3,5-triazin-2-yl)benzonitrile]	–
0.855 µM	0.018 µM	–	0.028 µM	N#Cc1cc(-c2ncnc(Nc3ccc(N4CCN(C5COC5)CC4)cc3)n2)ccc1O[C@H]1CCN(C(=O)[C@@H]2C[C@@H](O)CN2)C[C@H]1F [Example 589, 2-(((3R,4S)-3-fluoro-1-((2S,4R)-4-hydroxypyrrolidine-2-carbonyl)piperidin-4-yl)oxy)-5-(4-((4-(4-(oxetan-3-yl)piperazin-1-yl)phenyl)amino)-1,3,5-triazin-2-yl)benzonitrile]	–
0.443 µM	0.035 µM	–	0.059 µM	CC1(C)CN(C(=O)CC#N)C[C@H](F)[C@@H]1Oc1ccc(-c2ncnc(Nc3ccc(N4CCN(C5COC5)CC4)cc3)n2)cc1C#N [Example 449, 2-(((4R,5S)-1-(2-cyanoacetyl)-5-fluoro-3,3-dimethylpiperidin-4-yl)oxy)-5-(4-((4-(4-(oxetan-3-yl)piperazin-1-yl)phenyl)amino)-1,3,5-triazin-2-yl)benzonitrile]	–
0.918 µM	0.028 µM	0.07 µM	–	N#Cc1cc(-c2ncnc(Nc3ccc(N4CCN(C5COC5)CC4)cc3)n2)ccc1OC1CCN(C(=O)C2(O)CC2)CC1 [Example 70, 2-((1-(1-hydroxycyclopropanecarbonyl)piperidin-4-yl)oxy)-5-(4-((4-(4-(oxetan-3-yl)piperazin-1-yl)phenyl)amino)-1,3,5-triazin-2-yl)benzonitrile]	–
0.899 µM	0.003 µM	0.012 µM	–	N#Cc1cc(-c2ncnc(Nc3ccc(C(=O)NC4COC4)cc3)n2)ccc1OC1CCOCC1 [Example 75, 4-((4-(3-cyano-4-((tetrahydro-2H-pyran-4-yl)oxy)phenyl)-1,3,5-triazin-2-yl)amino)-N-(oxetan-3-yl)benzamide]	–
0.258 µM	0.004 µM	0.002 µM	–	Cn1ncc2ccc(Nc3ncnc(-c4ccc(O[C@H]5CCN(C(=O)CO)C[C@H]5F)c(C#N)c4)n3)cc21 [Example 343, 2-(((3R,4S)-3-fluoro-1-(2-hydroxyacetyl)piperidin-4-yl)oxy)-5-(4-((1-methyl-1H-indazol-6-yl)amino)-1,3,5-triazin-2-yl)benzonitrile]	–
0.226 µM	0.029 µM	0.075 µM	–	COC[C@@H](O)C(=O)N1CC[C@H](Oc2ccc(-c3ncnc(Nc4ccc(N5CCN(C6COC6)CC5)cc4)n3)cc2C#N)[C@H](F)C1 [Example 617, 2-(((3R,4S)-3-fluoro-1-((R)-2-hydroxy-3-methoxypropanoyl)piperidin-4-yl)oxy)-5-(4-((4-(4-(oxetan-3-yl)piperazin-1-yl)phenyl)amino)-1,3,5-triazin-2-yl)benzonitrile]	–
≥ 1 µM	0.018 µM	0.047 µM	–	N#Cc1cc(-c2ncnc(Nc3ccc4oc(=O)[nH]c4c3)n2)ccc1OC1CCOCC1 [Example 277, 5-(4-((2-oxo-2,3-dihydrobenzo[d]oxazol-5-yl)amino)-1,3,5-triazin-2-yl)-2-((tetrahydro-2H-pyran-4-yl)oxy)benzonitrile]	–
≥ 1 µM	0.503 µM	0.494 µM	–	N#Cc1cc(-c2ncnc(Nc3ccc(N4CCN(C5COC5)CC4)cc3)n2)ccc1OCCN1CCN(C(N)=O)CC1 [Example 606, 4-(2-(2-cyano-4-(4-((4-(4-(oxetan-3-yl)piperazin-1-yl)phenyl)amino)-1,3,5-triazin-2-yl)phenoxy)ethyl)piperazine-1-carboxamide]	–
0.228 µM	0.002 µM	–	0.002 µM	CC(C)(C)n1cc(Nc2ncnc(-c3ccc(O[C@H]4CCN(C(=O)[C@@H](O)CO)C[C@H]4F)c(C#N)c3)n2)cn1 [Example 419, 5-(4-((1-(tert-butyl)-1H-pyrazol-4-yl)amino)-1,3,5-triazin-2-yl)-2-(((3R,4S)-1-((S)-2,3-dihydroxypropanoyl)-3-fluoropiperidin-4-yl)oxy)benzonitrile]	–
0.674 µM	0.004 µM	0.002 µM	–	C[C@H](O)C(=O)N1CC[C@H](Oc2ccc(-c3ncnc(Nc4ccc(C(=O)N5CCN(C)CC5)cc4)n3)cc2C#N)[C@H](F)C1 [Example 120, 2-(((3R,4S)-3-fluoro-1-((S)-2-hydroxypropanoyl)piperidin-4-yl)oxy)-5-(4-((4-(4-methylpiperazine-1-carbonyl)phenyl)amino)-1,3,5-triazin-2-yl)benzonitrile]	–
0.183 µM	0.005 µM	0.013 µM	–	C[C@H]1C[C@@H](Oc2ccc(-c3ncnc(Nc4ccc(N5CCN(C6COC6)CC5)cc4)n3)cc2C#N)CCN1C(=O)CC#N [Example 187, 2-(((2S,4S)-1-(2-cyanoacetyl)-2-methylpiperidin-4-yl)oxy)-5-(4-((4-(4-(oxetan-3-yl)piperazin-1-yl)phenyl)amino)-1,3,5-triazin-2-yl)benzonitrile]	–
0.33 µM	0.049 µM	0.229 µM	–	N#Cc1cc(-c2ncnc(Nc3ccc(N4CCN(C5COC5)CC4)cc3)n2)ccc1O[C@H]1CCNCC1(F)F (single isomer, unassigned) [Example 149]	–
0.206 µM	0.001 µM	0.002 µM	–	C[C@H](O)C(=O)N1CCC(Oc2ccc(-c3ncnc(Nc4ccc(N5CCO[C@@H](CO)C5)cc4)n3)cc2C#N)C(F)(F)C1 (stereo partly drawn) [Example 228, 2-((3,3-difluoro-1-((S)-2-hydroxypropanoyl)piperidin-4-yl)oxy)-5-(4-((4-((R)-2-(hydroxymethyl)morpholino)phenyl)amino)-1,3,5-triazin-2-yl)benzonitrile]	–
0.341 µM	0.006 µM	0.01 µM	–	N#Cc1cc(-c2ncnc(Nc3ccc(N4CCN(C5COC5)CC4)cc3)n2)ccc1O[C@H]1CCN(C(=O)C2(O)CC2)C[C@H]1F [Example 140, 2-(((3R,4S)-3-fluoro-1-(1-hydroxycyclopropanecarbonyl)piperidin-4-yl)oxy)-5-(4-((4-(4-(oxetan-3-yl)piperazin-1-yl)phenyl)amino)-1,3,5-triazin-2-yl)benzonitrile]	–
0.255 µM	0.003 µM	0.008 µM	–	CC1CN(C(=O)CO)CCC1Oc1ccc(-c2ncnc(Nc3ccc(N4CCN(C5COC5)CC4)cc3)n2)cc1C#N (stereo not drawn) [Example 170, 2-((1-(2-hydroxyacetyl)-3-methylpiperidin-4-yl)oxy)-5-(4-((4-(4-(oxetan-3-yl)piperazin-1-yl)phenyl)amino)-1,3,5-triazin-2-yl)benzonitrile]	–
≥ 1 µM	0.005 µM	0.004 µM	–	C[C@H](O)C(=O)N1CC[C@H](Oc2ccc(-c3ncnc(Nc4ccc([C@H]5CCCN5C5COC5)cc4)n3)cc2C#N)[C@H](F)C1 [Example 616, 2-(((3R,4S)-3-fluoro-1-((S)-2-hydroxypropanoyl)piperidin-4-yl)oxy)-5-(4-((4-((R)-1-(oxetan-3-yl)pyrrolidin-2-yl)phenyl)amino)-1,3,5-triazin-2-yl)benzonitrile]	–
0.118 µM	0.114 µM	0.391 µM	–	N#Cc1cc(-c2ncnc(Nc3ccc(N4CCN(C5COC5)CC4)cc3)n2)ccc1O[C@@H]1CN(C(=O)CO)CC1(F)F (single isomer, unassigned) [Example 196]	–
0.127 µM	0.014 µM	0.04 µM	–	N#Cc1cc(-c2ncnc(Nc3ccc(N4CCN(C5COC5)CC4)cc3)n2)ccc1O[C@H]1CCN(C(=O)Cc2ccn[nH]2)C[C@H]1F [Example 320, 2-(((3R,4S)-1-(2-(1H-pyrazol-5-yl)acetyl)-3-fluoropiperidin-4-yl)oxy)-5-(4-((4-(4-(oxetan-3-yl)piperazin-1-yl)phenyl)amino)-1,3,5-triazin-2-yl)benzonitrile]	–

SMILES	IC50 (hJAK2)	IC50 (TBK1)	IC50 (IKKε)	IC50 (IKKε; [1])	IC50 (TBK1; TBK1 IC50)
N#Cc1cc(-c2ncnc(Nc3ccc(N4CCN(C5COC5)CC4)cc3)n2)ccc1OC1CC2CCC(C1)N2C(=O)CO (stereo not drawn) [Example 173, 2-((8-(2-hydroxyacetyl)-8-azabicyclo[3.2.1]octan-3-yl)oxy)-5-(4-((4-(4-(oxetan-3-yl)piperazin-1-yl)phenyl)amino)-1,3,5-triazin-2-yl)benzonitrile]	0.265 µM	–	0.218 µM	–	0.092 µM
Cn1ccc(C(=O)N2CCC(COc3ccc(-c4ncnc(Nc5ccc(N6CCN(C7COC7)CC6)cc5)n4)cc3C#N)CC2)cc1=O [Example 593, 2-((1-(1-methyl-2-oxo-1,2-dihydropyridine-4-carbonyl)piperidin-4-yl)methoxy)-5-(4-((4-(4-(oxetan-3-yl)piperazin-1-yl)phenyl)amino)-1,3,5-triazin-2-yl)benzonitrile]	≥ 1 µM	0.452 µM	–	0.66 µM	–
C[C@H](O)C(=O)N1CC[C@H](Oc2ccc(-c3ncnc(Nc4ccc(C5CCN(C6COC6)CC5)c(F)c4)n3)cc2C#N)[C@H](F)C1 [Example 310, 2-(((3R,4S)-3-fluoro-1-((S)-2-hydroxypropanoyl)piperidin-4-yl)oxy)-5-(4-((3-fluoro-4-(1-(oxetan-3-yl)piperidin-4-yl)phenyl)amino)-1,3,5-triazin-2-yl)benzonitrile]	≥ 1 µM	0.004 µM	0.002 µM	–	–

Reference: patent publication US10040781B2, “Tank-binding kinase inhibitor compounds” (Gilead Sciences, Inc., priority 2014, dated 2018)
